Activity calls are given as the source filed them. No cut-off for these calls is given here.

Data set [1] concerns HepG2. The experiment in a line: Cytotoxicity against Homo sapiens (human) HepG2 assessed as mitochondrial DNA level at 0.1 to 10 umol for 8 days by dot blot assay. In kind it is cell-based. As to conditions: hepg2, 192 h.
The subject of data set [2] is HepG2. The experiment in a line: Cytotoxicity against Homo sapiens (human) HepG2 assessed as mitochondrial DNA level for 8 days by dot blot assay. In kind it is cell-based. Particulars: hepg2, 192 h.
The subject of data set [3] is HepG2. Briefly: Cytotoxicity against Homo sapiens (human) HepG2 cells at <1000 uM after 72 hr by MTT assay. In kind it is cell-based. Particulars: hepg2, 72 h.
The subject of data set [4] is Duck hepatitis B virus. Briefly: Antiviral activity against Duck hepatitis B virus (DHBV) infected duck assessed as reduced inflammation in liver at 2 to 50 mg/kg, po for 30 days. The format is functional, organism-based.
For data set [5], the system named is Duck hepatitis B virus. Briefly: Antiviral activity against Duck hepatitis B virus (DHBV) infected duck assessed as liver weight at 2 mg/kg, po for 30 days (reference value: 1.25 g). In kind it is functional.
The test system of data set [6] is Duck hepatitis B virus. The experiment in a line: Antiviral activity against Duck hepatitis B virus (DHBV) infected duck assessed as liver weight at 10 mg/kg, po for 30 days (reference value: 1.25 g). The format is functional.
Data set [7] has as its system Duck hepatitis B virus. Briefly: Antiviral activity against Duck hepatitis B virus (DHBV) infected duck assessed as liver weight at 50 mg/kg, po for 30 days (reference value: 1.25 g). In kind it is functional.
For data set [8], the system named is Duck hepatitis B virus. The experiment in a line: Antiviral activity against Duck hepatitis B virus (DHBV) infected po dosed duck assessed as reduction in viral DNA level administered for 30 days measured on day 15 post termination of treatment by RT-PCR analysis. In kind it is functional, organism-based.
Data set [9] concerns Duck hepatitis B virus. The experiment in a line: Antiviral activity against Duck hepatitis B virus (DHBV) infected po dosed duck assessed as reduction in viral DNA level administered for 30 days measured on day 30 by RT-PCR analysis. In kind it is functional, organism-based.
In data set [10] the test system is Duck hepatitis B virus. Briefly: Antiviral activity against Duck hepatitis B virus (DHBV) infected po dosed duck assessed as reduction in viral DNA level administered for 30 days measured on day 15 post initial treatment by RT-PCR analysis. The format is functional, organism-based.
Data set [11] has as its system Duck hepatitis B virus. The experiment in a line: Antiviral activity against Duck hepatitis B virus (DHBV) infected duck assessed as reduction in viral DNA level at 2 to 50 mg/kg, po for 30 days measured on day 15 post initial treatment by RT-PCR analysis. In kind it is functional, organism-based.
Data set [12] concerns Duck hepatitis B virus. Briefly: Antiviral activity against Duck hepatitis B virus (DHBV) infected duck assessed as reduction in viral DNA level at 2 to 50 mg/kg, po for 30 days measured on day 15 post termination of treatment by RT-PCR analysis. In kind it is functional, organism-based.
Data set [13] relates to Duck hepatitis B virus. The experiment in a line: Antiviral activity against Duck hepatitis B virus (DHBV) infected duck assessed as reduction in viral DNA level at 2 to 50 mg/kg, po for 30 days measured on day 30 by RT-PCR analysis. The format is functional, organism-based.
Data set [14] concerns Duck hepatitis B virus. The experiment in a line: Antiviral activity against Duck hepatitis B virus (DHBV) infected duck assessed as viral DNA level at 2 to 50 mg/kg, po for 30 days measured on day 15 post initial treatment by RT-PCR analysis. In kind it is functional, organism-based.
Data set [15] deals with Duck hepatitis B virus. Briefly: Antiviral activity against Duck hepatitis B virus (DHBV) infected duck assessed as reduced inflammation in liver at 10 mg/kg, po for 30 days. Further details: dose 10 mg/kg. The format is functional, organism-based.
Data set [16] deals with Duck hepatitis B virus. The experiment in a line: Antiviral activity against Duck hepatitis B virus (DHBV) infected duck assessed as reduction in viral DNA level at 10 mg/kg, po for 30 days measured on day 15 post termination of treatment by RT-PCR analysis. The format is functional, organism-based. Set-up: dose 10 mg/kg.
In data set [17] the test system is Duck hepatitis B virus. Briefly: Antiviral activity against Duck hepatitis B virus (DHBV) infected duck assessed as reduction in viral DNA level at 10 mg/kg, po for 30 days measured on day 30 by RT-PCR analysis. The format is functional, organism-based. Further details: dose 10 mg/kg.
The subject of data set [18] is Duck hepatitis B virus. Briefly: Antiviral activity against Duck hepatitis B virus (DHBV) infected duck assessed as viral DNA level at 10 mg/kg, po for 30 days measured on day 15 post initial treatment by RT-PCR analysis. In kind it is functional, organism-based. Set-up: dose 10 mg/kg.

Consider `Nc1ccn([C@H]2CC[C@@H](CO)O2)c(=O)n1` [ZALCITABINE], for which the Activity result in the data set with HepG2 [1] is on record as “Toxic”; in the data set on HepG2 [2] it was “Dose-dependent effect”.
With `CSc1ccc(Sc2nc(N)nc3c2ncn3CCOCP(=O)(OCC(F)(F)F)OCC(F)(F)F)cc1`, the Activity entry is reported as “Non-toxic” with HepG2 [1]; “Non-toxic” with HepG2 [3]; 0.8 g with Duck hepatitis B virus [5]; 0.75 g in the data set with Duck hepatitis B virus [6]; 0.55 g in the data set on Duck hepatitis B virus [7]. In addition, the inhibition result in the data set on Duck hepatitis B virus [4] is “Active”. Further, the inhibition entry in the data set with Duck hepatitis B virus [8], with Duck hepatitis B virus [9] and with Duck hepatitis B virus [10] was “Dose-dependent effect” in each case.
Regarding `CC(Cn1cnc2c(Sc3ccc4c(c3)CCO4)nc(N)nc21)OCP(=O)(OCC(F)(F)F)OCC(F)(F)F` (stereo unspecified), the Activity result in the data set on HepG2 [1] is given as “Non-toxic”; with HepG2 [3], “Non-toxic”; with Duck hepatitis B virus [5] it was 0.9 g; with Duck hepatitis B virus [6] it was 0.75 g; in the data set on Duck hepatitis B virus [7] it was 0.95 g. Besides, the inhibition entry with Duck hepatitis B virus [4], with Duck hepatitis B virus [11], with Duck hepatitis B virus [12] and in the data set with Duck hepatitis B virus [13] was “Active” throughout. Besides, the outcome in the data set on Duck hepatitis B virus [14] was inactive.
On to `COc1ccc(Sc2nc(N)nc3c2ncn3CCOCP(=O)(OCC(F)(F)F)OCC(F)(F)F)cc1F`, for which the Activity result in the data set with HepG2 [1] is “Non-toxic”; in the data set on HepG2 [3], “Non-toxic”; with Duck hepatitis B virus [5], 0.8 g; in the data set with Duck hepatitis B virus [6], 0.8 g; in the data set on Duck hepatitis B virus [7] it was 0.85 g. Further, the inhibition result in the data set on Duck hepatitis B virus [4], in the data set on Duck hepatitis B virus [11], with Duck hepatitis B virus [12] and with Duck hepatitis B virus [13] was “Active” throughout.
Regarding `CC(C)(C)C(=O)OCOP(=O)(COCCn1cnc2c(N)ncnc21)OCOC(=O)C(C)(C)C` [ADEFOVIR DIPIVOXIL], the Activity entry with HepG2 [3] was “Non-toxic”; in the data set with Duck hepatitis B virus [6], 0.8 g. For the same molecule, the inhibition result in the data set on Duck hepatitis B virus [15], in the data set on Duck hepatitis B virus [16] and in the data set on Duck hepatitis B virus [17] was “Active” each time. In addition, the outcome with Duck hepatitis B virus [18] was inactive.
